# US20230250098A1 (priority 2021, published 2023)
# pIC50, pKi: −log10 of the molar value. “Also recorded” adds a separate entry of the source. Structures can show the parent of a compound that is named as a salt.
# Experiments:
# [1] = system: δOP KO mice; assay: Two-bottle choice alcohol paradigm in δOP KO mice; assay type: in vivo, mouse; conditions: male δOP KO mice
# [2] = target: T1, HA-mouse μOP (Mus musculus, UniProt P42866); assay: GloSensor cAMP inhibition assay in transfected HEK cells; assay type: cell-based; conditions: for cAMP α: efficacy normalized to positive control DAMGO; for pIC50 / cAMP pIC50: inhibition of forskolin-induced cAMP
# T1 construct: HA (N); expressed in transfected cells; host or cells: HEK cells, transient transfection together with pGloSensor22F
# [3] = target: T2, FLAG-mouse κOP (Mus musculus, UniProt P33534); assay type: cell-based; conditions: for pIC50: read-out: cAMP IC50
# T2 construct: FLAG (N); expressed in transfected cells; host or cells: HEK cells, transient transfection together with pGloSensor22F
# [4] = target: μOP (Homo sapiens, UniProt P35372); assay type: binding; set-up: membranes isolated; conditions: for Binding pKi / pKi: [3H]DAMGO, CHO membranes; for pKi: read-out: Binding Ki
# [5] = target: T3, δOP (Homo sapiens, UniProt P41143); assay type: binding; set-up: membranes isolated; conditions: for Binding pKi / pKi: [3H]DPDPE, CHO membranes; for pKi: read-out: Binding Ki
# [6] = target: T4, κOP (Homo sapiens, UniProt P41145); assay type: binding; set-up: membranes isolated; conditions: for pKi: read-out: Binding Ki
# [7] = system: male, WT mice; assay: Conditioned place preference (brief and extended); conditions: 10 mg·kg^−1; four conditioning sessions each for drug and vehicle
# [8] = system: C57Bl/6 wild-type mice; assay: Two-bottle choice alcohol paradigm (drinking in the dark, 10% ethanol vs water); assay type: in vivo, mouse
# [9] = target: T5, FLAG-mouse δOP (Mus musculus, UniProt P32300); assay: GloSensor cAMP inhibition assay in transfected HEK cells; assay type: cell-based; conditions: for cAMP α: efficacy normalized to positive control Leu-Enk; for pIC50 / cAMP pIC50: inhibition of forskolin-induced cAMP
# T5 construct: FLAG (N); expressed in transfected cells; host or cells: HEK cells (HEK-293), transient transfection together with pGloSensor22F
# [10] = system: male mice; assay: Tail flick thermal nociception assay; assay type: in vivo, mouse
# [11] = system: wildtype mice; assay: Seizure assay (modified racine scale); conditions: 10 mg·kg^−1
# [12] = system: WT mice; assay: Locomotor evaluation
# [13] = system: C57Bl/6 wild-type mice; conditions: cited from earlier work; for alcohol consumption, in words (previous reports): dose not stated
# [14] = target: T4, κOP; assay type: cell-based
# [15] = system: δOP KO mice; assay: Accelerating rotarod test in δOP KO mice
# [16] = system: WT mice; assay: Accelerating rotarod test; conditions: 30 mg·kg^−1 i.p.
# [17] = target: T3, δOP; assay type: cell-based
# [18] = 30 mg·kg^−1 (7-hydroxypaynantheine s.c., speciociliatine i.p.), WT male mice
# T3 sequence (P41143 whole entry): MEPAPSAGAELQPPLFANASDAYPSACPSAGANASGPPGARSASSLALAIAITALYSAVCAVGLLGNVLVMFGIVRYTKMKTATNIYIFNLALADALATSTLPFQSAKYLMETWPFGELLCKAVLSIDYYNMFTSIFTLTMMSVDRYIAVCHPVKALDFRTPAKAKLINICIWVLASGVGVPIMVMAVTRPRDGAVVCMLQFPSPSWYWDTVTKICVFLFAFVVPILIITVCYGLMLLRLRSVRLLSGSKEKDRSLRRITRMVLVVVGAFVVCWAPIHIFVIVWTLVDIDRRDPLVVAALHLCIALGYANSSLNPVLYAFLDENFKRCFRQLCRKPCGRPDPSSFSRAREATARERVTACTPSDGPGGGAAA
# μOP, sequence (P35372 whole entry): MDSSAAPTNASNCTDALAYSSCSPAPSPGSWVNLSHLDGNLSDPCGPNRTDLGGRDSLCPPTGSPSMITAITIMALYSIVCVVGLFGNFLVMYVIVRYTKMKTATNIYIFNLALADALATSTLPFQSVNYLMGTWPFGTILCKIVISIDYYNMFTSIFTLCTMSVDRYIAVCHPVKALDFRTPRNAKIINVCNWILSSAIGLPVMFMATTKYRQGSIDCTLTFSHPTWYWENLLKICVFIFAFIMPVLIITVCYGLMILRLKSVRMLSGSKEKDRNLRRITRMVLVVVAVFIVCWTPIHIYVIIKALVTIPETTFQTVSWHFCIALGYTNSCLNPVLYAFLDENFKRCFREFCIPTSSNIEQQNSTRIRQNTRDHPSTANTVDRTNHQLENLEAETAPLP
# T4 sequence (P41145 whole entry): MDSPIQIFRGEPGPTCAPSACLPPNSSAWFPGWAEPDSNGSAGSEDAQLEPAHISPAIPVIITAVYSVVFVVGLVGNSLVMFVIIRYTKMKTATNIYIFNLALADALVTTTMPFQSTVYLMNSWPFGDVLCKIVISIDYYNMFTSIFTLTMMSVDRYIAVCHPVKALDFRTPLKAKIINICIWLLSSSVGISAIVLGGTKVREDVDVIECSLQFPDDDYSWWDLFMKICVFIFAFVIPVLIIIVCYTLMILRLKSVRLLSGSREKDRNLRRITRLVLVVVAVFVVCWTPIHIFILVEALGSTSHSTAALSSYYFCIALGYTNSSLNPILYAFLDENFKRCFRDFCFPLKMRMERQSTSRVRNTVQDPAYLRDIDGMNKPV
# T2 sequence (P33534 whole entry): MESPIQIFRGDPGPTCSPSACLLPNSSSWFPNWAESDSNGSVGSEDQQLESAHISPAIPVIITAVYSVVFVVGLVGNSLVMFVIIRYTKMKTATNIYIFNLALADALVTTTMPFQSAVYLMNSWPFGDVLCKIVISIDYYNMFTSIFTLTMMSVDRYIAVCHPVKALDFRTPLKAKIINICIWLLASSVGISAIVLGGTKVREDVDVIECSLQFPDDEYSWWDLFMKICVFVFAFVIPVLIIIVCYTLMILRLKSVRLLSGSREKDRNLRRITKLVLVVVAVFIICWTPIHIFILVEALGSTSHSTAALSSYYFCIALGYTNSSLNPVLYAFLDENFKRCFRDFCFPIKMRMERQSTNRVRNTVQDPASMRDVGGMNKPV
# T1 sequence (P42866 whole entry): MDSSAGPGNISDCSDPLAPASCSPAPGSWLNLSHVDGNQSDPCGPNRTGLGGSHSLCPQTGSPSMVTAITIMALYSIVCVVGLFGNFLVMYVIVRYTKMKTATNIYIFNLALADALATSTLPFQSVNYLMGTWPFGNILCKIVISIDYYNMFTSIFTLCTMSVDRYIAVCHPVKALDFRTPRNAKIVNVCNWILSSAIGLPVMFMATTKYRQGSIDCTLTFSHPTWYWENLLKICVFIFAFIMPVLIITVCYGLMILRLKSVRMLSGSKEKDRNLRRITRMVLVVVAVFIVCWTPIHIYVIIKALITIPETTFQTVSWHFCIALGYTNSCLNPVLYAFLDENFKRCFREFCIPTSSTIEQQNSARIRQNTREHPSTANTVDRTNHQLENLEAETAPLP
# T5 sequence (P32300 whole entry): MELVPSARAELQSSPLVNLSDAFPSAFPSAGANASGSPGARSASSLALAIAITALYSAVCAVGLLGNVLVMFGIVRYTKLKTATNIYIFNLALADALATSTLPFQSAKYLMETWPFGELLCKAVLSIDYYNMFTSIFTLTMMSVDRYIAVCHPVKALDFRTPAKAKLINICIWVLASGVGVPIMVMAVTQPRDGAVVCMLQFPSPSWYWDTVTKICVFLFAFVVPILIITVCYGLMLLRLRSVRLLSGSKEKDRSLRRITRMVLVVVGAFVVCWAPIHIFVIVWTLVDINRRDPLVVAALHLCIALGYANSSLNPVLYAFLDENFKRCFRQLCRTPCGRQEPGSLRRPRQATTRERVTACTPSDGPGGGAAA
molecule,measurement,setting,value
"CC[C@H]1CN2CC[C@@]3(O)C(=Nc4cccc(OC)c43)[C@@H]2C[C@@H]1/C(=C\OC)C(=O)OC [7OH SPG, 7-hydroxyspeciogynine]","ethanol consumption in δOP KO mice, in words",[1]; 3 mg·kg^−1,did not significantly decrease ethanol consumption; also recorded: alcohol consumption was not significantly altered
same,"ethanol consumption in δOP KO mice, in words",[1]; 10 mg·kg^−1,did not significantly decrease ethanol consumption; also recorded: alcohol consumption was not significantly altered
same,"cAMP inhibition at the μOP, in words",[2],lowest potency at the μOP; also recorded: reduced μOP potency
same,cAMP α,[2],66 ± 6
same,pIC50,[2],5.62
same,cAMP pIC50,[2],6.2±0.3
same,cAMP pIC50,[3],5.1 ± 0.3 (3)
same,cAMP α,[3],80 ± 20
same,pIC50,[3],5.11
same,"μOP affinity, in words",[4],strongest μOP affinity
same,"δOP binding, in words",[5],improved binding relative to speciogynine
same,Binding pKi,[5],6.3±0.1
same,pKi,[5],6.34
same,Binding pKi,[6],5.8 ± 0.2 (3)
same,pKi,[6],5.79
same,"conditioned place preference, extended protocol",[7],did not develop conditioned place preference
same,"ethanol consumption, in words","[8]; 3 mg·kg^−1 s.c., WT male and female mice",reduced alcohol intake; also recorded: efficacious activity; also recorded: dose-dependently decreased ethanol consumption; also recorded: significantly decreased the percent ethanol consumption
same,average decrease of ethanol consumption,"[8]; 10 mg·kg^−1, WT mice",1.2 ± 0.2 g/kg
same,percent reduction of ethanol consumption,"[8]; 10 mg·kg^−1, WT mice",40±7%
same,"ethanol consumption, in words","[8]; 10 mg·kg^−1 s.c., WT mice",reduced alcohol intake; also recorded: dose-dependently decreased ethanol consumption; also recorded: significantly decreased the percent ethanol consumption
same,"cAMP inhibition at the δOP, in words",[9],strongest activator at the δOP
same,difference in potency at the δOP between 7-hydroxyspeciogynine and 7-hydroxypaynantheine,[9],10 fold
same,cAMP α,[9],76 ± 6
same,pIC50,[9],5.64
same,cAMP pIC50,[9],5.6 ± 0.1 (6)
same,block of morphine analgesia (antagonist mode),"[10]; 10 mg·kg^−1, then morphine 6 mg·kg^−1 s.c. 10 minutes later","did not produce antinociception (paired, two-tailed t-test, t=0.6193, df=9, p=0.5511) or block morphine analgesia"
same,antinociception (agonist mode),"[10]; 10 mg·kg^−1, 30 minutes after drug",did not produce antinociception
same,seizure activity,[11],"did not significantly alter ambulation (paired, two-tailed t-test, t=0.7552, df=6, p=0.4787) (FIG. 5B) or induce seizures"
same,ambulation / locomotor activity,[12]; 10 mg·kg^−1,did not significantly alter ambulation
"C=C[C@H]1CN2CC[C@@]3(O)C(=Nc4cccc(OC)c43)[C@@H]2C[C@@H]1/C(=C\OC)C(=O)OC [70H PAYN, 7-Hydroxypaynantheine]","ethanol consumption in δOP KO mice, in words",[1]; 30 mg·kg^−1,did not significantly decrease ethanol consumption; also recorded: alcohol consumption was not significantly altered
same,"cAMP inhibition at the μOP, in words",[2],lowest potency at the μOP; also recorded: reduced μOP potency
same,cAMP α,[2],80 ± 40
same,pIC50,[2],4.66
same,cAMP pIC50,[2],4.7±0.5
same,"cAMP inhibition at the κOP, in words",[3],not detected at the tested dose range
same,Binding pKi,[4],5.2 ± 0.1 (3)
same,pKi,[4],5.21
same,"δOP binding, in words",[5],a magnitude weaker in binding the δOP than 7-hydroxyspeciogynine
same,Binding pKi,[5],4.9±0.2
same,pKi,[5],4.90
same,Binding pKi,[6],5.1 ± 0.1 (3)
same,pKi,[6],5.13
same,"ethanol consumption, in words","[8]; 10 mg·kg^−1 s.c., WT mice, listed as 7-hydroxypaynanthiene",not 10 mg·kg^−1
same,"ethanol consumption, in words",[8]; [18],significantly reduce alcohol intake; also recorded: significantly decreased ethanol consumption
same,"ethanol consumption, in words","[8]; 30 mg·kg^−1 (7-hydroxypaynantheine s.c., speciociliatine i.p.), WT male mice, listed as 7-hydroxypaynanthiene",efficacious activity; also recorded: decreased the percent ethanol consumption
same,average decrease of ethanol consumption,"[8]; 30 mg·kg^−1, WT mice",1.1 ± 0.3 g/kg
same,percent reduction of ethanol consumption,"[8]; 30 mg·kg^−1, WT mice",40±11%
same,cAMP α,[9],70 ± 20
same,pIC50,[9],5.24
same,cAMP pIC50,[9],5.2 ± 0.3 (5)
COc1ccsc1CNCC[C@@]1(c2ccccn2)CCOC2(CCCC2)C1 [Oliceridine],"alcohol consumption, in words (previous reports)",[13],not decrease alcohol consumption
"C=CC1CN2CCC3(Nc4cccc(OC)c4C3=O)C2CC1C(=COC)C(=O)OC (stereo not shown) [PAYN PI, Paynantheine Pseudoindoxyl]","cAMP inhibition at the μOP, in words",[2],lowest potency at the μOP
same,cAMP α,[2],60 ± 6
same,pIC50,[2],5.32
same,cAMP pIC50,[2],5.3 ± 0.2 (4)
same,Binding pKi,[4],6.2 ± 0.1 (3)
same,pKi,[4],6.17
same,Binding pKi,[5],6.0 ± 0.1 (3)
same,pKi,[5],6.04
same,Binding pKi,[6],5.9 ± 0.1 (4)
same,pKi,[6],5.88
"CC[C@@H]1CN2CCc3c([nH]c4cccc(OC)c34)[C@H]2C[C@@H]1/C(=C\OC)C(=O)OC [SPECIO, speciociliatine]","β-arrestin2 recruitment, in words",[14],no β-arrestin2 recruitment was detected
same,death and seizures in the rotarod assay,[15]; 30 mg/kg i.p.,"one δOP KO mouse died after experiencing severe, level 5-6 seizures"
same,"rotarod performance, in words",[15]; 30 mg·kg^−1 i.p.,The same effect was observed in δOP KO mice; also recorded: significantly impairs motor incoordination; also recorded: significantly decreased time spent on the rod
same,"rotarod performance (time spent on the rod), in words",[16],significantly reduced the ability of treated wildtype mice to perform in the rotarod assessment; also recorded: significantly impairs motor incoordination; also recorded: significantly decreased time spent on the rod
same,time of full recovery on rotarod,[16]; post-injection,120 min
same,"δOP binding, in words",[5],displayed binding at the δOP
same,Binding pKi,[5],5.4±0.1
same,pKi,[5],5.36
same,"β-arrestin2 recruitment, in words",[17],no β-arrestin2 recruitment was detected
same,Binding pKi,[6],6.2 ± 0.1 (4)
same,pKi,[6],6.23
same,"ethanol consumption, in words",[8]; [18],significantly decreased ethanol consumption; also recorded: significant and sharp decrease in alcohol consumption
same,average decrease of ethanol consumption,"[8]; 30 mg·kg^−1, WT mice",2.5 ± 0.3 g/kg
same,percent reduction of ethanol consumption,"[8]; 30 mg·kg^−1, WT mice",90±3%
"CC[C@H]1CN2CC[C@]3(Nc4cccc(OC)c4C3=O)[C@@H]2C[C@@H]1/C(=C\OC)C(=O)OC [SPG PI, Speciogynine Pseudoindoxyl]",cAMP α,[2],58 ± 4
same,pIC50,[2],6.64
same,cAMP pIC50,[2],6.6 ± 0.2 (5)
same,cAMP pIC50,[3],4.7 ± 0.5 (4)
same,cAMP α,[3],80 ± 30
same,pIC50,[3],4.69
same,Binding pKi,[4],7.1 ± 0.1 (3)
same,pKi,[4],7.11
same,Binding pKi,[5],6.0 ± 0.1 (3)
same,pKi,[5],6.03
same,Binding pKi,[6],6.1 ± 0.1 (3)
same,pKi,[6],6.12
same,cAMP α,[9],80 ± 20
same,pIC50,[9],5.07
same,cAMP pIC50,[9],5.1 ± 0.3 (4)
"CC[C@H]1CN2CCc3c([nH]c4cccc(OC)c34)[C@@H]2C[C@@H]1/C(=C\OC)C(=O)OC [SPG, speciogynine, reference compound]",Binding pKi,[5],5.1 ± 0.1 (6)
same,pKi,[5],5.27
same,Binding pKi,[6],5.4 ± 0.1 (5)
same,pKi,[6],5.52
same,"alcohol intake, in words","[8]; systemic (i.p.) injection, modified 2-bottle choice, male C57BL/6 mice, FIG. 1",reduce alcohol intake
CN1CC[C@]2(c3cccc(O)c3)Cc3nc4ccccc4cc3C[C@H]2C1 [TAN-67],"alcohol consumption, in words (previous reports)",[13],efficaciously reduces alcohol use
"C=CCN1CC[C@]23c4c5ccc(O)c4O[C@H]2C(=O)CC[C@@]3(O)[C@H]1C5 [naloxone, naloxone hydrochloride]",block of 7-hydroxymitragynine-induced hyperlocomotion,[12]; dose of naloxone considered to be μOP-selective,completely blocked
Oc1ccc2c3c1O[C@H]1c4[nH]c5ccccc5c4C[C@@]4(O)[C@@H](C2)N(CC2CC2)CC[C@]314 [naltrindole],"alcohol intake, in words (previous reports)",[13]; 10 mg·kg^−1,not decrease alcohol intake
Leu-enkephalin [reference compound],β-arrestin 2 α,[17]; normalized to positive control Leu-Enk,100
same,cAMP α,[9],100
